In PMC8718961, “The CbbQO-type rubisco activases encoded in carboxysome gene clusters can activate carboxysomal form IA rubiscos” (The Journal of Biological Chemistry, 2021):
Each block holds one molecule with its values, some of them ahead of it.

Legend:
[1] = target: T1, AfL2S2 (form IA^C carboxysomal rubisco) (Acidithiobacillus ferrooxidans, UniProt B7JB30, N472H); assay: inhibited ECM-CABP (ECMC) complex, reactivation by CbbQO activase, coupled spectrophotometric rubisco assay; assay type: biochemical; conditions: 20 mM NaHCO3, Mg2+, 25 °C; PEG 3350; active site, tight-binding transition-state analog
T1 construct: gene cbbL1; recombinant E. coli BL21(DE3); large and small subunits; anion exchange and size exclusion

[2] = target: T2, HnLS (form IA^C carboxysomal rubisco) (Halothiobacillus neapolitanus, UniProt O85040); assay: as above; assay type: biochemical; conditions: 20 mM NaHCO3, Mg2+, 25 °C; PEG 3350; active site, tight-binding transition-state analog
T2 construct: gene cbbL; recombinant E. coli BL21(DE3), pET30bHnLS (NdeI/HindIII); large and small subunits; anion exchange and size exclusion

[3] = target: T3, AfL2S2 (form IA^C carboxysomal rubisco) (Acidithiobacillus ferrooxidans, UniProt B7JB30, V471A/N472H/R473K); assay: as above; assay type: biochemical; conditions: 20 mM NaHCO3, Mg2+, 25 °C; PEG 3350; active site, tight-binding transition-state analog; printed as VNR C terminus substituted with AHK
T3 construct: gene cbbL1; recombinant E. coli BL21(DE3); large and small subunits; anion exchange and size exclusion

[4] = target: T4, AfL2S2 (form IA^C carboxysomal rubisco) (Acidithiobacillus ferrooxidans, UniProt B7JB30); assay: as above; assay type: biochemical; conditions: 20 mM NaHCO3, Mg2+, 25 °C; PEG 3350; active site, tight-binding transition-state analog
T4 construct: gene cbbL1; recombinant E. coli BL21(DE3); large and small subunits; anion exchange and size exclusion

[5] = target: T5, AfQ3O3 (carboxysomal CbbQO rubisco activase) (Acidithiobacillus ferrooxidans, UniProt B7JB17); assay: ATPase, coupled spectrophotometric assay; assay type: biochemical; conditions: 0.27 µM oligomer, 25 °C
T5 construct: gene p30; recombinant E. coli BL21(DE3), pHue and pBad33 (ubiquitin-type) vectors; CbbQ hexamer with CbbO; with CbbO protein (von Willebrand factor A domain, rubisco activase adaptor)

[6] = target: T6, AfQ1O1 (form IA^Q-associated CbbQO rubisco activase) (Acidithiobacillus ferrooxidans, UniProt B7JA26); assay: ATPase, coupled spectrophotometric assay; assay type: biochemical; conditions: 0.27 µM oligomer, 25 °C
T6 construct: gene cbbQ-1; recombinant E. coli BL21(DE3), pHueAfCbbQ1 and pBad33UbAfcbbO1; CbbQ hexamer with CbbO; with CbbO protein (von Willebrand factor A domain, rubisco activase adaptor)
T6 sequence (B7JA26 1-267): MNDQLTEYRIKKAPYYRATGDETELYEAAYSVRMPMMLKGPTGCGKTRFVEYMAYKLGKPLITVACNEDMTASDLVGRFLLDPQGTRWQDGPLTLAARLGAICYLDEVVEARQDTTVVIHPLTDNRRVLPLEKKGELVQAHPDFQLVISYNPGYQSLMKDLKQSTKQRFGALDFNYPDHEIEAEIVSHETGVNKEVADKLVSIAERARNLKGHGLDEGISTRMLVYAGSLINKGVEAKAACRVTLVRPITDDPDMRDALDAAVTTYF
T6 sequence (B7JA27 1-772 partner): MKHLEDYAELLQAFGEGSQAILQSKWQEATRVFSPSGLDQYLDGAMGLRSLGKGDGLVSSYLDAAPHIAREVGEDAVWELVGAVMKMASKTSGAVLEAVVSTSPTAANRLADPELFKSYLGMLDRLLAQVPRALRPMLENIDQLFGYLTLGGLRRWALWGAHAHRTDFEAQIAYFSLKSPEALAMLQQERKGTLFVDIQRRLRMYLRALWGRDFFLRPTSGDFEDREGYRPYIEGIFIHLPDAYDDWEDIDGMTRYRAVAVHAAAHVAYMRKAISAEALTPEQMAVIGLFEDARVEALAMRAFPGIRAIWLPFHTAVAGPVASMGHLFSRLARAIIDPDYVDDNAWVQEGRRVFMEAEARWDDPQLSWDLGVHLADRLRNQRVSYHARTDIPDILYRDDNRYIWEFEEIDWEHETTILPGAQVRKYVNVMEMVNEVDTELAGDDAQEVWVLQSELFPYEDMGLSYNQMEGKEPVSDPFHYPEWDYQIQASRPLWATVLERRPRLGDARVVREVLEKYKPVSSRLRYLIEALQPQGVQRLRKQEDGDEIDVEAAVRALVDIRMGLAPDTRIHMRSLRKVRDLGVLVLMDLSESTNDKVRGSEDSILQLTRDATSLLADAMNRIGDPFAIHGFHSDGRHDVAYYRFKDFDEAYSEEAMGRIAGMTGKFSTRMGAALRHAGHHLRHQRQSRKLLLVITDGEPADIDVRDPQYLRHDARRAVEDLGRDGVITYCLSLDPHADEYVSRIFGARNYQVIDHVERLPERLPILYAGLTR

[7] = target: T2, HnLS (form IA^C carboxysomal rubisco); assay: RuBP release rate from apo-rubisco-RuBP (ER) complex, carboxylation time course; assay type: biochemical; conditions: apoenzyme with 0.4 mM RuBP; assay 50 mM NaHCO3, 1 mM RuBP, 25 °C; active site
[8] = target: T7, AfL1S1 (form IA^Q rubisco) (Acidithiobacillus ferrooxidans, UniProt B7JA24); assay: as above; assay type: biochemical; conditions: apoenzyme with 0.4 mM RuBP; assay 50 mM NaHCO3, 1 mM RuBP, 25 °C; active site
T7 construct: gene cbbL2; recombinant E. coli BL21(DE3); large and small subunits; anion exchange and size exclusion

[9] = target: T4, AfL2S2 (form IA^C carboxysomal rubisco); assay: as above; assay type: biochemical; conditions: apoenzyme with 0.4 mM RuBP; assay 50 mM NaHCO3, 1 mM RuBP, 25 °C; active site
[10] = target: T1, AfL2S2 (form IA^C carboxysomal rubisco); assay: spontaneous RuBP release from ER complex; assay type: biochemical; conditions: apoenzyme with RuBP; 25 °C; active site
SynLS (form IB rubisco) = target: T8, SynLS (form IB rubisco) (Synechococcus elongatus, UniProt P00880); assay: RuBP release rate from apo-rubisco-RuBP (ER) complex, carboxylation time course; assay type: biochemical; conditions: apoenzyme with 0.4 mM RuBP; assay 50 mM NaHCO3, 1 mM RuBP, 25 °C; active site
T8 construct: gene cbbL; large and small subunits

[11] = target: T3, AfL2S2 (form IA^C carboxysomal rubisco); assay: spontaneous RuBP release from ER complex; assay type: biochemical; conditions: apoenzyme with RuBP; 25 °C; active site; printed as VNR C terminus substituted with AHK
[12] = target: A. ferrooxidans carboxysomal form IA^C rubisco with N472H in the large subunit (Acidithiobacillus ferrooxidans ATCC23270)
[13] = target: A. ferrooxidans carboxysomal form IA^C rubisco with the last three residues of the large subunit changed from VNR to AHK (Acidithiobacillus ferrooxidans ATCC23270)
[14] = target: A. ferrooxidans carboxysomal form IA^C rubisco with N472H in the large subunit (Acidithiobacillus ferrooxidans ATCC23270); remark: listed apart in the source
[15] = target: A. ferrooxidans carboxysomal form IA^C rubisco with the last three residues of the large subunit changed from VNR to AHK (Acidithiobacillus ferrooxidans ATCC23270); remark: listed apart in the source

T3 sequence (B7JB30 whole entry V471A/N472H/R473K): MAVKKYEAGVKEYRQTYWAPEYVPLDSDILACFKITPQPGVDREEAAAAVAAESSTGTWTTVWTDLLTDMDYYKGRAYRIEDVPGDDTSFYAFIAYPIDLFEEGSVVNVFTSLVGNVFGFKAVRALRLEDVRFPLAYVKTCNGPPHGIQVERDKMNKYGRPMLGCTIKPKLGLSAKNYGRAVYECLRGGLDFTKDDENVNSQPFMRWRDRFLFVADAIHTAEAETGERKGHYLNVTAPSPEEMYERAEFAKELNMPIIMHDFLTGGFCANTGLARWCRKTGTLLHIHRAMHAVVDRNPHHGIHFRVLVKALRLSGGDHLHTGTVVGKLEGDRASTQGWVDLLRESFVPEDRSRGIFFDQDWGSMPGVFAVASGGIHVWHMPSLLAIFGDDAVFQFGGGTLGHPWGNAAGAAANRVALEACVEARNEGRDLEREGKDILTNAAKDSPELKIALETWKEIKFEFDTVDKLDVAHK
T3 sequence (B7JB29 entry or part of it, stated change not applied, further chain): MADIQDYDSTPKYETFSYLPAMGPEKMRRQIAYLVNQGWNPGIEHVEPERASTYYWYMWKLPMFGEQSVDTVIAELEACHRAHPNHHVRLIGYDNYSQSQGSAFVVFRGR
T2 sequence (O85040 whole entry): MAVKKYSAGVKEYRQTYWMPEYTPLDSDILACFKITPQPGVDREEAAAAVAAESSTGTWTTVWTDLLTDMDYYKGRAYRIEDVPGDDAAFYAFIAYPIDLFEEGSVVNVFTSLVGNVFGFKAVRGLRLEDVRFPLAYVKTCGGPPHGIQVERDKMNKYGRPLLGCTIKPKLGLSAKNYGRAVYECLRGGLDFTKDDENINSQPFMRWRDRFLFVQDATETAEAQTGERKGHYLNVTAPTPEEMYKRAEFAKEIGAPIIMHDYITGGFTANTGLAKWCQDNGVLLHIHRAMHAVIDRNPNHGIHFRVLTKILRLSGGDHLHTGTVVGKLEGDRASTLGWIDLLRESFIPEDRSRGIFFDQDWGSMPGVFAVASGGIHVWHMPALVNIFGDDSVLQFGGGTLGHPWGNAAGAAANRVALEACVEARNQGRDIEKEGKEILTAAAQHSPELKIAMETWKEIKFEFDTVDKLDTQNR
T2 sequence (P45686 whole entry partner): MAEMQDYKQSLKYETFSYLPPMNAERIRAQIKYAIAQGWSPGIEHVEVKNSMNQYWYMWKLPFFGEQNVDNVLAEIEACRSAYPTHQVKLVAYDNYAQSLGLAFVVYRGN
T4 sequence (B7JB30 whole entry): as the sequence (B7JB30 whole entry V471A/N472H/R473K) above, with A471V, H472N, K473R counted along it
T4 sequence (B7JB29 1-110 partner): as the sequence (B7JB29 entry or part of it, stated change not applied, further chain) above
T1 sequence (B7JB30 whole entry N472H): as the sequence (B7JB30 whole entry V471A/N472H/R473K) above, with A471V, K473R counted along it
T1 sequence (B7JB29 entry or part of it, stated change not applied, further chain): as the sequence (B7JB29 entry or part of it, stated change not applied, further chain) above
T7 sequence (B7JA24 whole entry): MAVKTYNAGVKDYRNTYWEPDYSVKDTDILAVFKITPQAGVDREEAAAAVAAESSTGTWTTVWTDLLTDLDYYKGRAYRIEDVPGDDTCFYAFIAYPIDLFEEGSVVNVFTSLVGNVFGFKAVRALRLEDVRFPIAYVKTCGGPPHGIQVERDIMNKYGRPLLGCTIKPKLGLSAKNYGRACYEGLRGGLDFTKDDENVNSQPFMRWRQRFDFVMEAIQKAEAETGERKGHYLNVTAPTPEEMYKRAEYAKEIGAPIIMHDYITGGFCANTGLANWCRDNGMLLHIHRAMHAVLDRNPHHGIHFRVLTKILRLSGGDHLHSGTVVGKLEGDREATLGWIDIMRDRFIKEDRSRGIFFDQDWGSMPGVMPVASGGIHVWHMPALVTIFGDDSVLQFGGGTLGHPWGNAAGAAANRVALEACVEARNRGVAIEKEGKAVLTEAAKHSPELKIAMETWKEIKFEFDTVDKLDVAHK
T7 sequence (B7JA25 1-118 partner): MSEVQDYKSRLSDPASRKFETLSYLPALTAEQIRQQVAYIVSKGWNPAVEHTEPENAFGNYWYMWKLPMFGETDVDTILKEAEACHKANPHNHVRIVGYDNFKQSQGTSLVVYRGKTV
T5 sequence (B7JB16 entry or part of it): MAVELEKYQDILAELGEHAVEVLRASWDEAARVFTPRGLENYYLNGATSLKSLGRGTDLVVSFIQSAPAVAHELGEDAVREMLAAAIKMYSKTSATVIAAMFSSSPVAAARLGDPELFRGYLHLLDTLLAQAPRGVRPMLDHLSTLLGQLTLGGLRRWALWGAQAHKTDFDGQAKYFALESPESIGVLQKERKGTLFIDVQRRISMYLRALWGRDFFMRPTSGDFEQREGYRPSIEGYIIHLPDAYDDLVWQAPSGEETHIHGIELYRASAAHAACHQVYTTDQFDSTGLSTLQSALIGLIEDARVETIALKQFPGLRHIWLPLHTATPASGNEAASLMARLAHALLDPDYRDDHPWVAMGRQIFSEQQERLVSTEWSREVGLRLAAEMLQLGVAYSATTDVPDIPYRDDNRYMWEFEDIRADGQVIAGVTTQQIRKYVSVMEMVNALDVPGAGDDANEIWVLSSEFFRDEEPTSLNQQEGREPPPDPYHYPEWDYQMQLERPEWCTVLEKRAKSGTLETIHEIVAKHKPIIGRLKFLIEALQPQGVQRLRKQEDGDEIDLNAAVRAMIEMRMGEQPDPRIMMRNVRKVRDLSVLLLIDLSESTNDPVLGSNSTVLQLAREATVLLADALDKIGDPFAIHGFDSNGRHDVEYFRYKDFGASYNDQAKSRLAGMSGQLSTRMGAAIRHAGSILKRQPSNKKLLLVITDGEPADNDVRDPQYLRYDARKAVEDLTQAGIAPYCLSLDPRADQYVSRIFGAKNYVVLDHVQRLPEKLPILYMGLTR
T5 sequence (B7JB17 entry or part of it): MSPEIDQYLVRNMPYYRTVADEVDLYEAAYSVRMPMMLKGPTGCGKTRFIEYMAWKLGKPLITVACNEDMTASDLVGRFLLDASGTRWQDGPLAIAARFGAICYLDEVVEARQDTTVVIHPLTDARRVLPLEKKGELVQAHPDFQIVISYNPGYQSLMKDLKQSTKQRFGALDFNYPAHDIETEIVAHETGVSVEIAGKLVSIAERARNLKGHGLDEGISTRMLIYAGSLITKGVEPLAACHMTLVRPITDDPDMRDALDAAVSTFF

Molecule: O=C(O)[C@@](O)(COP(=O)(O)O)[C@H](O)[C@H](O)COP(=O)(O)O (mixture of isomers) [carboxy-arabinitol 1,5-bisphosphate]
inhibited ECM-CABP (ECMC) complex, reactivation by CbbQO activase, coupled spect [1]: mutation at the C terminus of AfL2S2 enhances activation of ECMC complexes by Q1O1 | inhibited ECM-CABP (ECMC) complex, reactivation by CbbQO activase, coupled spect [2]: HnQO was able to remove CABP from its cognate form IA^C rubisco HnLS | inhibited ECM-CABP (ECMC) complex, reactivation by CbbQO activase, coupled spect [3]: mutation at the C terminus of AfL2S2 enhances activation of ECMC complexes by Q1O1 | inhibited ECM-CABP (ECMC) complex, reactivation by CbbQO activase, coupled spect [4]: ability to remove the transition state analog CABP from the A. ferrooxidans form IA^C (AfL2S2) holoenzyme

Molecule: Nc1ncnc2c1ncn2[C@@H]1O[C@H](COP(=O)(O)OP(=O)(O)OP(=O)(O)O)[C@@H](O)[C@H]1O [ATP]
ATPase, coupled spectrophotometric assay [5]: The ATPase activity of the purified AfQ3O3 complex was similar to that of the AfQ1O1 | ATPase, coupled spectrophotometric assay [6]: The ATPase activity of the purified AfQ3O3 complex was similar to that of the AfQ1O1

Molecule: O=C(COP(=O)(O)O)[C@H](O)[C@H](O)COP(=O)(O)O [ribulose 1,5-bisphosphate]
RuBP release rate [7]: The RuBP release rate was derived from the ER time courses | RuBP release rate [8]: (AfL1S1) formed a stable binary complex with RuBP and had the slowest inhibitor release rate | RuBP release rate [9]: The RuBP release rate was derived from the ER time courses | spontaneous RuBP release from ER complex [10]: displayed similar carboxylation kinetics and spontaneous RuBP release under our assay conditions | RuBP release rate (SynLS (form IB rubisco)): the very loose RuBP-binding phenotype of the cyanobacterial form IB SynLS rubisco | spontaneous RuBP release from ER complex [11]: displayed similar carboxylation kinetics and spontaneous RuBP release under our assay conditions

Rca activity: activation of CABP-inhibited rubisco (ECMC), coupled spectrophotometric rubisco assay, 5% v/v PEG, 20 mM NaHCO3; against wildtype AfL2S2 [12]: 6 fold | Rca activity: activation of CABP-inhibited rubisco (ECMC), coupled spectrophotometric rubisco assay, 5% v/v PEG, 20 mM NaHCO3; against wildtype AfL2S2 [13]: 6 fold
Molecule: A. ferrooxidans CbbQ1-CbbO1 rubisco activase complex (form IA^Q associated)

Rca activity: activation of CABP-inhibited rubisco (ECMC), coupled spectrophotometric rubisco assay, 13% v/v PEG, 20 mM NaHCO3; against wildtype AfL2S2 [14]: 30 % increase | Rca activity: activation of CABP-inhibited rubisco (ECMC), coupled spectrophotometric rubisco assay, 13% v/v PEG, 20 mM NaHCO3; against wildtype AfL2S2 [15]: 60 % reduction
Molecule: A. ferrooxidans CbbQ3-CbbO3 rubisco activase complex (carboxysomal, form IA^C associated)
